Measurements taken from patent US6699908B2, “Methods for providing safe local anesthesia” (Euro-Celtique, S.A., priority 1996, dated 2004).
Structures can show the parent of a compound that is named as a salt.

How the values were obtained:
Sprague-Dawley rats = assay: Single dose toxicity (acute lethality) in rats, intramuscular; type: in vivo; settings: for Mortality: I.M.
Protocol: Sprague-Dawley rats from Charles River, 6-8 weeks of age (body weight about […] for females and about 200-290 grams for males) were used for these studies.
Male and female rats were dosed intramuscularly in the hind limb with bupivacaine base (the form used in the microspheres), aqueous bupivacaine HCl, or LAB. The animals were examined for pharmacotoxic signs (including tremors and convulsions, and death).

sciatic nerve = assay: Local injection proximal to the sciatic nerve, rat hot plate assay / dose-response; type: in vivo; settings: rats, local injection of 25 mg/kg (8 mg/nerve)
[1] = in vivo; cited from earlier work

CCCCN1CCCCC1C(=O)Nc1c(C)cccc1C (stereo not drawn) [Bupivacaine free base, bupivacaine base]
Mortality (Sprague-Dawley rats; 50 mg/kg): 1/4 | Mortality (Sprague-Dawley rats; 100 mg/kg): 1/4 | Mortality (Sprague-Dawley rats; 150 mg/kg): 2/4

CCCCN1CCCCC1C(=O)Nc1c(C)cccc1C (stereo not drawn) [Bupivacaine HCl, bupivacaine HCl]
deaths of the animals (sciatic nerve): about 10% | Mortality (Sprague-Dawley rats; 5 mg/kg): 0/4 | Mortality (Sprague-Dawley rats; 10 mg/kg): 0/4 | Mortality (Sprague-Dawley rats; 25 mg/kg): 0/4 | Mortality (Sprague-Dawley rats; 50 mg/kg, HCl): 4/4 | Mortality (Sprague-Dawley rats; 100 mg/kg, HCl): 4/4 | lowest lethal dose (Sprague-Dawley rats; intramuscular dosing): 10.6 mg/kg | paralysis of the hindlimb (local motor anesthesia) (Sprague-Dawley rats; intramuscular dosing in the hind limb): More transient paralysis

CCCCN1CCCCC1C(=O)Nc1c(C)cccc1C (stereo not drawn) [bupivacaine]
plasma concentrations associated with toxicity [1]: > 1600 ng/mL
